Experimental data reported in US8158621B2, “Methods of treating or preventing autoimmune diseases with 2,4-pyrimidinediamine compounds” (Rigel Pharmaceuticals, Inc., priority 2002, dated 2012).

Key:
[1] = tested on: bone marrow derived mast cells (BMMC); assay: BMMC high cell density IgE activation: histamine; format: cell-based, mouse; settings: High Density; read-out: BMMC anti-IgE histamine
Procedure: (§1) After sensitizing, cells are counted, pelleted (1000 rpm, 5-10 minutes), and resuspended at 1-3×10^6 cells/ml in MT buffer. Add 100 ul of cell suspension to each well and 100 ul of compound dilutions. The final vehicle concentration is 0.5% DMSO. Incubate at 37° C. (5% CO2) for 1 hour. After 1 hour of compound treatment, stimulate cells with 6× stimulus (60 ng/ml DNP-BSA). Mix wells with the cells and allow plates to incubate at 37° C. (5% CO2) for one hour. After 1 hour incubation, pellet cells (10 minutes, 1000 RPM) and collect 200 ul per well of the supernatant, being careful not to disturb pellet, and transfer to a clean tube or 96-well plate. Place the supernatant plate on ice. During the 4-5 hour step (see next) perform the hexosiminidase assay. Resuspend cell pellet in 240 ul WEI-conditioned media containing 0.5% DMSO and corresponding concentration of compound. Incubate BMMC cells for 4-5 hours at 37° C. (5% CO2). After incubation, pellet cells (1000 RPM, 10 minutes) and collect 225 ul per well and place in −80° C. until ready to perform ELISAS. ELISAS are performed on appropriately diluted samples (determined empirically for each donor cell population so that the sample measurement falls within the standard curve) following the supplier's instructions.

[2] = tested on: bone marrow derived mast cells (BMMC); assay: BMMC high cell density IgE activation: LTC4; format: cell-based, mouse; settings: High Density; read-out: BMMC anti-IgE LTC4
Procedure: as §1

[3] = 14-day repeat-dose intranasal toxicity study in New Zealand White rabbits; format: in vivo; settings: 14-day intranasal
Procedure: A 14-day repeat-dose intranasal toxicity study in New Zealand White rabbits was performed at doses of 1.7, 3.4 or 5.0 mg/kg/day. In life parameters included: clinical observations, body weights, food consumption, ophthalmology, hematology, clinical chemistry, gross necropsy, organ weights, toxicokinetic assessments and histopathology (including the nasal cavity).

[4] = Non-clinical safety studies of R921218 (summary); parameters: species or system rodents and non-rodents; settings: in vivo
Description: A short discussion of key toxicology studies is provided.

[5] = in vitro chromosomal aberration assay
[6] = format: in vivo; settings: rat, 32 days
[7] = Mouse collagen antibody-induced arthritis (CAIA); format: in vivo, Balb/c mice
Procedure: Arthrogen-CIA® Arthritis-inducing Monoclonal Antibody Cocktail (Chemicon International Inc.) is administered intravenously to Balb/c mice (2mg/mouse) on Day 0. Forty-eight hours later, 100 μl of LPS (25 μg) is injected intraperitoneally. On Day 4, toes may appear swollen. By Day 5, one or two paws (particular the hind legs) begin to appear red and swollen. On Day 6, and thereafter, red and swollen paws will remain for at least 1-2 weeks. During the study, the clinical signs of inflammation are scored to evaluate the intensity of edema in the paws. The severity of arthritis is recorded as the sum score of both hind paws for each animal (possible maximum score of 8). The degree of inflammation with involved paws is evaluated by measurement of diameter of the paws. Body weight changes are monitored.
Animals are treated at the time of induction of arthritis, beginning on Day 0. Test compounds and control compounds are administered once a day (q.d.) or twice a day (b.i.d.), via per os (PO), depending on previously established PK profiles.
At the end of the study (1-2 weeks after induction of arthritis), mice are euthanized and the paws are transected at the distal tibia using a guillotine and weighed. The mean±standard error of the mean (SEM) for each group is determined each day from individual animal clinical scores, and hind paw weights for each experimental group are calculated and recorded at study termination. Histopathological evaluation of paws are obtained.

[8] = Mouse model of allergic asthma (ovalbumin); format: in vivo; settings: intranasal, 10 consecutive days (Day 7 through Day 16), 20 mg/kg
Description: Mice are sensitized to ovalbumin (chicken protein) in the presence of an adjuvant (Alum) by the intraperitoneal route on day 0 and day 7. One week later, mice are challenged intranasally with ovalbumin on Days 14, 15 and 16 (more stringent model) or on Day 14 (less stringent model). This sensitization and challenge regimen leads to airway hyperresponsiveness and inflammation in the lungs, which are two dominant characteristics of human allergic asthma. In the mouse model, the in vivo airway responses are measured using a whole body plethysmograph which determines the PENH (enhanced Pause, Buxco Electronics). The PENH is a dimensionless value comprised of the peak inspiratory flow (PIF), peak expiratory flow (PEF), time of inspiration, time of expiration and relaxation time, and is considered a validated parameter of airway responsiveness. Responses to allergen challenge (OVA) are compared with animals challenged with saline only. Twenty-four hours after challenge, mice are exposed to increasing doses of methacholine (muscarinic receptor agonist) which results in smooth muscle contraction. […] In addition, a cellular infiltrate in the airway is observed in ovalbumin challenged mice when compared with the saline challenged mice. This cellular infiltrate is mainly characterized by eosinophils, but a smaller influx of neutrophils and mononuclear cells is also present. […]

For Oc1cccc(Nc2ncc(F)c(Nc3cccc(O)c3)n2)c1 [Compound R921218], the IC50 [1] was 203 nM, the IC50 [2] was 766 nM and the “NOAEL (no observed adverse effect level)” value [3] was 5.0 mg/kg/day. The genetic toxicology testing [4] was “no evidence for mutagenic or elastogenic potential”.
For CNC(=O)COc1cccc(Nc2ncc(F)c(Nc3ccc4c(c3)NCCO4)n2)c1 [Compound R921219], the “clastogenic potential, in vitro chromosomal aberration assay” value [5] was “not found to possess elastogenic potential”.
For Nc1cccc(Nc2ncc(F)c(Nc3cccc(N)c3)n2)c1 [Compound R921302], the “tolerability, oral doses of 50, 150 and 300 mg/kg” value [6] was “well tolerated”, the “Group Average Histopathological Score (0-15), average total score ± SD” value ([7]; 100 mg/kg, twice daily) was 5.1 ± 1.9 and the “reduction of paw weight compared with vehicle control group” value ([7]; end of study) was 99.9%. For the same molecule, the “histopathological evaluation of the resected paws” value ([7]; mouse, in vivo) was “lesions of lesser severity”.
In the case of CNC(=O)COc1cccc(Nc2ncc(F)c(Nc3ccc4c(n3)NC(=O)CO4)n2)c1 [Compound R921304], the “ovalbumin-induced airway hyperresponsiveness to methacholine” value [8] is reported as “able to inhibit”.
